Tests used:
[1] = Determination of solubility of cellobiose (Karl Fisher moisture of supernatant); format: physicochemical; settings: supernatant of 20% (w/v) solution after crystal formation, 100% minus moisture content
Description: There was prepared a 20% (w/v) solution of a commercially available cellobiose (manufactured by Wako Pure Chemical Co., Ltd.), the resulting solution was introduced into a thermostatic chamber maintained at a temperature ranging from 10 to 60° C. to thus form crystals of cellobiose, thereafter the content of water present in the supernatant was determined using a Karl Fisher moisture meter and then the solubility was calculated by subtracting the moisture content from 100%.

[2] = Solubility in water expressed as dissolution time; format: physicochemical; settings: for Dissolution Time: 10 g in 100 mL deionized water at 25 °C with stirring
Description: The solubility (the rate of dissolution) of crystalline cellobiose in water may vary depending on the rates of the stereoisomers (the rates of the α- and β-anomers). For instance, when the cellobiose crystals are dissolved in water, the resulting solution is maintained at a high temperature falling within the range in which the solution is not boiled, preferably 80 to 95° C. for a time ranging from 0.5 to 2.0 hours and then the solution is dried while maintaining the same at that temperature, the ratio of the α-anomer is increased to thus give cellobiose powder improved in its solubility in water.
The cellobiose-containing sugar solution having a high content of cellobiose, prepared in Example 4 was concentrated to a solid content concentration of 20%, the sugar solution was then maintained at a temperature of 20° C., 60° C. or 80° C. for one hour and, immediately thereafter, the solution was dried in a spray dryer to thus give cellobiose powder. These powdery cellobiose products were inspected for the solubility in water and the distribution rate of anomers. In this respect, the distribution rate of anomers was determined using Gas Chromatograph GC14 available from Shimadzu Corporation which was equipped with a column: DB1701 (inner diameter: 0.25 mm; length: 30 m) available from J & W Company. More specifically, each sample (1.0 mg) was dissolved in 0.769 mL of pyridine, 0.077 mL of TMSC and 0.154 mL of HMDS were added to the resulting solution, the mixture was maintained at room temperature for one hour and then it was used in the gas chromatography analysis.

## O=C[C@H](O)[C@@H](O)[C@H](O[C@@H]1O[C@H](CO)[C@@H](O)[C@H](O)[C@H]1O)[C@H](O)CO [Cellobiose, cellobiose]
[1]; 10 °C
  Solubility of Cellobiose: 13.5%
[1]; 20 °C
  Solubility of Cellobiose: 14.0%
[1]; 30 °C
  Solubility of Cellobiose: 14.7%
[1]; 40 °C
  Solubility of Cellobiose: 18.4%
[1]; 50 °C
  Solubility of Cellobiose: 22.9%
[1]; 60 °C
  Solubility of Cellobiose: 26.3%

## O=C[C@H](O)[C@@H](O)[C@H](O[C@@H]1O[C@H](CO)[C@@H](O)[C@H](O)[C@H]1O)[C@H](O)CO [Example 1, cellobiose]
[2]; 10 g sample in 100 mL deionized water at 25 °C with stirring, crystals
  time required for the dissolution: 12.5 min

## O=C[C@H](O)[C@@H](O)[C@H](O[C@@H]1O[C@H](CO)[C@@H](O)[C@H](O)[C@H]1O)[C@H](O)CO [Example 5, cellobiose]
[2]; powder spray-dried from sugar solution kept at 20 °C for one hour
  Dissolution Time: 8.0 min
[2]; powder spray-dried from sugar solution kept at 60 °C for one hour
  Dissolution Time: 4.0 min
[2]; powder spray-dried from sugar solution kept at 80 °C for one hour
  Dissolution Time: 2.5 min
